Measured values: article PMC3462168 (Analytical biochemistry, 2010)
Peptide text beside a SMILES is read from it. * marks the point of attachment. 5FAM = O=C1OC2(c3ccc(O)cc3Oc3cc(O)ccc32)c2ccc(C(=O)*)cc21

Columns and labels:
[1] = biological target: T1, hRSV F protein 5-Helix Bundle (5HB) (Human respiratory syncytial virus A, UniProt P03420); assay: Competitive FP binding assay; set-up: species or system hRSV strain A2; settings: for inhibition at 100 µM: read-out: % Inhibition (100 µM)
hRSV = assay: Antiviral activity of C20; assay type: cell-based; settings: read-out: EC50, antiviral activity; methods only in supporting information
[2] = biological target: T1, hRSV F protein 5-Helix Bundle (5HB); assay: ELISA of Fl-C35 binding to 5HB; set-up: species or system hRSV strain A2; settings: data in supporting information
EBV gH/gL complex [3] = settings: 5 nM Fl-C35, increasing amount of EBV gH/gL
EBV gH/gL complex [4] = settings: read-out: IC50 of binding to EBV gH/gL protein; cited from earlier work
hRSV 5HB = assay: FP specificity cross-test: EBV gp42 FITC-30mer against hRSV 5HB; assay type: binding, hRSV strain A2; settings: 5 nM FITC-30mer, wide range of 5HB concentrations

## CC[C@H](C)[C@H](N)C(=O)N[C@@H](CO)C(=O)N[C@@H](CCC(N)=O)C(=O)N[C@H](C(=O)N[C@@H](CC(N)=O)C(=O)N[C@@H](CCC(=O)O)C(=O)N[C@@H](CCCCN)C(=O)N[C@H](C(=O)N[C@@H](CC(N)=O)C(=O)N[C@@H](CCC(N)=O)C(=O)N[C@@H](CO)C(=O)N[C@@H](CC(C)C)C(=O)N[C@@H](C)C(=O)N[C@@H](Cc1ccccc1)C(=O)N[C@H](C(=O)N[C@@H](CCCNC(=N)N)C(=O)N[C@@H](CCCCN)C(=O)N[C@@H](CO)C(=O)N[C@@H](CC(=O)O)C(=O)N[C@@H](CCC(=O)O)C(=O)O)[C@@H](C)CC)[C@@H](C)CC)C(C)C [C20] (H-ISQVNEKINQSLAFIRKSDE-OH)
[1]
  inhibition at 100 µM: > 90%
hRSV
  EC50: > 12.5 µM

## CC[C@H](C)[C@H](NC(=O)[C@H](Cc1ccccc1)NC(=O)[C@H](C)NC(=O)[C@H](CC(C)C)NC(=O)[C@H](CO)NC(=O)[C@H](CCC(N)=O)NC(=O)[C@H](CC(N)=O)NC(=O)[C@@H](NC(=O)[C@H](CCCCN)NC(=O)[C@H](CCC(=O)O)NC(=O)[C@H](CC(N)=O)NC(=O)[C@@H](NC(=O)[C@H](CCC(N)=O)NC(=O)[C@H](CO)NC(=O)[C@@H](NC(=O)[C@H](CO)NC(=O)[C@H](C)NC(=O)[C@H](CC(=O)O)NC(=O)[C@H](Cc1ccccc1)NC(=O)[C@H](CCC(=O)O)NC(=O)[C@H](CC(=O)O)NC(=O)[C@H](CO)NC(=O)[C@@H]1CCCN1C(=O)[C@H](Cc1ccccc1)NC(=O)[C@@H](N)C(C)C)[C@@H](C)CC)C(C)C)[C@@H](C)CC)C(=O)N[C@@H](CCCNC(=N)N)C(=O)N[C@@H](CCCCN)C(=O)N[C@@H](CO)C(=O)N[C@@H](CC(=O)O)C(=O)N[C@@H](CCC(=O)O)C(=O)O [C30] (H-VFPSDEFDASISQVNEKINQSLAFIRKSDE-OH)
[1]
  inhibition at 100 µM: 100%

## CC[C@H](C)[C@H](NC(=O)[C@H](Cc1ccccc1)NC(=O)[C@H](C)NC(=O)[C@H](CC(C)C)NC(=O)[C@H](CO)NC(=O)[C@H](CCC(N)=O)NC(=O)[C@H](CC(N)=O)NC(=O)[C@@H](NC(=O)[C@H](CCCCN)NC(=O)[C@H](CCC(=O)O)NC(=O)[C@H](CC(N)=O)NC(=O)[C@@H](NC(=O)[C@H](CCC(N)=O)NC(=O)[C@H](CO)NC(=O)[C@@H](NC(=O)[C@H](CO)NC(=O)[C@H](C)NC(=O)[C@H](CC(=O)O)NC(=O)[C@H](Cc1ccccc1)NC(=O)[C@H](CCC(=O)O)NC(=O)[C@H](CC(=O)O)NC(=O)[C@H](CO)NC(=O)[C@@H]1CCCN1C(=O)[C@H](Cc1ccccc1)NC(=O)[C@@H](NC(=O)[C@H](CC(C)C)NC(=O)[C@@H]1CCCN1C(=O)[C@H](CC(=O)O)NC(=O)[C@@H](N)Cc1ccc(O)cc1)C(C)C)[C@@H](C)CC)C(C)C)[C@@H](C)CC)C(=O)N[C@@H](CCCNC(=N)N)C(=O)N[C@@H](CCCCN)C(=O)N[C@@H](CO)C(=O)N[C@@H](CC(=O)O)C(=O)N[C@@H](CCC(=O)O)C(=O)N[C@@H](CC(C)C)C(=O)O [C35] (H-YDPLVFPSDEFDASISQVNEKINQSLAFIRKSDEL-OH)
[1]
  IC50: 38.5 nM
  inhibition at 100 µM: 100%

## CC[C@H](C)[C@H](NC(=O)[C@H](Cc1ccccc1)NC(=O)[C@H](C)NC(=O)[C@H](CC(C)C)NC(=O)[C@H](CO)NC(=O)[C@H](CCC(N)=O)NC(=O)[C@H](CC(N)=O)NC(=O)[C@@H](NC(=O)[C@H](CCCCN)NC(=O)[C@H](CCC(=O)O)NC(=O)[C@H](CC(N)=O)NC(=O)[C@@H](NC(=O)[C@H](CCC(N)=O)NC(=O)[C@H](CO)NC(=O)[C@@H](NC(=O)[C@H](CO)NC(=O)[C@H](C)NC(=O)[C@H](CC(=O)O)NC(=O)[C@H](Cc1ccccc1)NC(=O)[C@H](CCC(=O)O)NC(=O)[C@H](CC(=O)O)NC(=O)[C@H](CO)NC(=O)[C@@H]1CCCN1C(=O)[C@H](Cc1ccccc1)NC(=O)[C@@H](NC(=O)[C@H](CC(C)C)NC(=O)[C@@H]1CCCN1C(=O)[C@H](CC(=O)O)NC(=O)[C@H](Cc1ccc(O)cc1)NC(=O)c1ccc2c(c1)C(=O)OC21c2ccc(O)cc2Oc2cc(O)ccc21)C(C)C)[C@@H](C)CC)C(C)C)[C@@H](C)CC)C(=O)N[C@@H](CCCNC(=N)N)C(=O)N[C@@H](CCCCN)C(=O)N[C@@H](CO)C(=O)N[C@@H](CC(=O)O)C(=O)N[C@@H](CCC(=O)O)C(=O)N[C@@H](CC(C)C)C(=O)O [Fl-C35] (5FAM-YDPLVFPSDEFDASISQVNEKINQSLAFIRKSDEL-OH)
[2]
  Specific binding of Fl-C35 to 5HB in ELISA: confirmed
EBV gH/gL complex [3]
  Binding of Fl-C35 to EBV gH/gL complex (negative control): no evidence of nonspecific binding

## KPNVEVWPVAAPPPVAEQEYGDKEVKLPHW [FITC-30mer]
EBV gH/gL complex [4]
  IC50: 1.3 nM
hRSV 5HB
  Binding of EBV gp42 FITC-30mer to hRSV 5HB (negative control): no evidence of nonspecific binding
